In PubChem BioAssay (NCI):
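Dose response: 5 concentrations. Exposure: 48 h. Format: 96-well plates. Endpoint: linear interpolation; highest concentration if not reached. GI50 is the concentration that inhibits growth by half. TGI: total growth inhibition.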 *1 amine or outer side, *2 acyl side, *3 side chain or, on linkers, in order; H or OH if unused. Where a SMILES comes first, the peptide text is derived from it. Bridges are numbered along the chain shown (N, C = ends). Roman numbers before positions name the chains, in order. [ ]: non-standard residue; d: D form. Actinocin(9to1) = Cc1c2oc3c(C)ccc(C(=O)[*:1])c3nc-2c(C(=O)[*:2])c(N)c1=O; NMeV = CN[CH](C(=O)O)C(C)C; Sar = CNCC(=O)O

Assays:
Test in all cases: DTP human tumour cell line panel, 48 h
A498 renal = tested on: A498 renal
HL-60(TB) leukemia = tested on: HL-60(TB) leukemia
SF-268 CNS = tested on: SF-268 CNS
MOLT-4 leukemia = tested on: MOLT-4 leukemia
SK-MEL-2 melanoma = tested on: SK-MEL-2 melanoma
HT29 colon = tested on: HT29 colon
HCC-2998 colon = tested on: HCC-2998 colon
NCI/ADR-RES ovarian = tested on: NCI/ADR-RES ovarian
DU-145 prostate = tested on: DU-145 prostate
A549 NSCLC = tested on: A549 NSCLC

Structure (SMILES) | TGI (A498 renal) [µM] | TGI (HL-60(TB) leukemia) [µM] | TGI (SF-268 CNS) [µM] | TGI (MOLT-4 leukemia) [µM] | TGI (SK-MEL-2 melanoma) [µM] | TGI (HT29 colon) [µM] | TGI (HCC-2998 colon) [µM] | TGI (NCI/ADR-RES ovarian) [µM] | TGI (DU-145 prostate) [µM] | GI50 (A498 renal) [µM] | GI50 (HL-60(TB) leukemia) [µM] | GI50 (SF-268 CNS) [µM] | GI50 (SK-MEL-2 melanoma) [µM] | GI50 (HT29 colon) [µM] | GI50 (HCC-2998 colon) [µM] | GI50 (NCI/ADR-RES ovarian) [µM] | GI50 (DU-145 prostate) [µM] | TGI (A549 NSCLC) [µM]
O=C1NC(=S)N/C1=C\c1ccc(Sc2ccccc2C(=O)O)s1 | > 100 | > 100 | > 100 | > 100 | > 100 | > 100 | > 100 | > 100 | > 100 | – | – | – | – | – | – | – | – | –
COc1ccc(-c2cc(-c3ccc(OC)c(OC)c3)nc(SCCCC(=O)NO)n2)cc1 | 3.06 | 5.99 | 5.45 | – | 5.85 | > 100 | 5.63 | 4.77 | 17.7 | 1.39 | 1.64 | 1.97 | 2.14 | 1.87 | 2.14 | 0.977 | 1.53 | –
c1cc2c3c(c1)[C@@H]1O[C@@H]1c1cccc(c1-3)[C@@H]1O[C@H]21 | > 100 | – | 33.6 | > 100 | 42.5 | 50.1 | – | 61.6 | 38.7 | – | – | – | – | – | – | – | – | > 100
Cc1c(Cl)c(=O)oc2cc(OCC(O)COC(C)C)ccc12 (stereo not drawn) | – | 56.9 | > 100 | 66.9 | 58.2 | > 100 | 37.3 | > 100 | > 100 | – | – | – | – | – | – | – | – | > 100
CCCCNC(=S)Nc1nc(C(=O)NNC(=S)NCc2ccccc2)cs1 | > 100 | – | > 100 | > 100 | > 100 | > 100 | > 100 | > 100 | > 100 | – | – | – | – | – | – | – | – | > 100
O=[N+]([O-])c1cccc([N+](=O)[O-])c1Cl | 38.8 | 24.2 | 46.5 | > 100 | 43.9 | 45.1 | – | 57.4 | 11.4 | – | – | – | – | – | – | – | – | 30
O=C(O)Cn1ncn(NC(=O)Cc2ccccc2)c1=S | > 10 | – | > 10 | > 10 | – | > 10 | > 10 | > 10 | > 10 | – | – | – | – | – | – | – | – | > 10
N#C[C@H]1C(=O)C(c2nc3ccccc3[nH]2)S[C@H]1c1ccccc1 (stereo partly drawn) | 79 | > 100 | – | > 100 | – | > 100 | > 100 | > 100 | > 100 | – | – | – | – | – | – | – | – | > 100
CCOC(=O)c1c(SCCN2CCCCC2)n(-c2ccccc2)c(=S)n(-c2ccccc2)c1=O | – | > 33.8 | > 75.4 | 6.7 | > 100 | 32.1 | > 53.4 | 41.7 | > 55.1 | – | – | – | – | – | – | – | – | > 100
O=C1CCc2cc3c(cc21)C(C(=O)O)CC3 (stereo not drawn) | – | > 100 | > 100 | > 100 | > 100 | > 100 | > 100 | > 100 | > 100 | – | – | – | – | – | – | – | – | > 100
Cn1c(O)c(/C=N/c2ncccn2)c(=O)[nH]c1=O | > 100 | > 100 | > 100 | > 100 | > 100 | > 100 | – | > 100 | > 100 | – | – | – | – | – | – | – | – | > 100
Oc1ccc(O)c(Sc2nnc(CCCCCCCCc3nnc(Sc4cc(O)ccc4O)o3)o2)c1 | > 100 | – | > 100 | > 100 | > 100 | > 100 | > 100 | > 100 | > 100 | – | – | – | – | – | – | – | – | > 100
COC(=O)c1c(C)cccc1C1CN=NC12Cc1cccc(C)c1C2=O (stereo not drawn) | > 100 | 33.6 | > 100 | – | 94.7 | > 100 | > 100 | > 100 | > 100 | – | – | – | – | – | – | – | – | 66.8
Cn1c(=O)[nH]n(-c2ccc3ccccc3c2)c1=O | > 100 | > 100 | > 100 | – | > 100 | > 100 | > 100 | > 100 | > 100 | – | – | – | – | – | – | – | – | > 100
S=c1oc(CCCCCCCCc2nn(CNc3ccc(Cl)cc3)c(=S)o2)nn1CNc1ccc(Cl)cc1 | > 100 | – | > 100 | > 100 | > 100 | > 100 | > 100 | > 100 | > 100 | – | – | – | – | – | – | – | – | > 100
Cc1cn([C@@H]2C[C@](C)(CO)N(C)O2)c(=O)[nH]c1=O | > 100 | > 100 | > 100 | – | > 100 | > 100 | > 100 | > 100 | > 100 | – | – | – | – | – | – | – | – | > 100
Cc1ccc(S(=O)(=O)CC2CCCn3c2c(C#N)c2ccccc23)cc1 (stereo not drawn) | > 100 | – | > 100 | > 100 | > 100 | > 100 | > 100 | > 100 | > 100 | – | – | – | – | – | – | – | – | > 100
Cc1c2oc3c(C)ccc(C(=O)NC4C(=O)NC(Cc5ccc(O)cc5)C(=O)N5CCCC5C(=O)N(C)CC(=O)N(C)C(C(C)C)C(=O)OC4C)c3nc-2c(C(=O)NC2C(=O)NC(Cc3ccc(O)cc3)C(=O)N3CCCC3C(=O)N(C)CC(=O)N(C)C(C(C)C)C(=O)OC2C)c(N)c1=O (stereo not drawn) (I: TYP[Sar][NMeV] / II: TYP[Sar][NMeV]; ester I:1-I:C, II:1-II:C; linker I:N-II:N via Actinocin(9to1); configuration not given here) | 56.1 | > 76.2 | > 100 | – | > 43.6 | > 100 | > 100 | > 100 | > 72.7 | – | – | – | – | – | – | – | – | > 100
NC(=O)CC[C@H]1C(=O)N=C(N)N1C(=O)OCc1ccccc1 | > 100 | > 100 | > 100 | > 100 | > 100 | > 100 | > 100 | > 100 | > 100 | – | – | – | – | – | – | – | – | –
CC(C)(C)C(=O)O[C@H]1C=C[C@@H](O)[C@@H]2[C@H]1[C@@H]1C=C[C@H]2C1 | 50.8 | 33.8 | > 100 | 83.8 | > 100 | – | 32.4 | 96.1 | > 100 | – | – | – | – | – | – | – | – | > 100
Cc1cc2nc3c(N)nn(CCN(C)C)c3nc2cc1C | > 100 | – | > 100 | > 100 | > 100 | > 100 | > 100 | > 100 | > 100 | – | – | – | – | – | – | – | – | > 100
